# Target: T1, Human Polθ polymerase domain (aa1820-2590) (Homo sapiens, UniProt O75417)
# T1 construct: Human Polθ polymerase domain (aa1820-2590) was expressed in E. coli; made in house; host or cells: E. coli
# T1 sequence (O75417 1820-2590): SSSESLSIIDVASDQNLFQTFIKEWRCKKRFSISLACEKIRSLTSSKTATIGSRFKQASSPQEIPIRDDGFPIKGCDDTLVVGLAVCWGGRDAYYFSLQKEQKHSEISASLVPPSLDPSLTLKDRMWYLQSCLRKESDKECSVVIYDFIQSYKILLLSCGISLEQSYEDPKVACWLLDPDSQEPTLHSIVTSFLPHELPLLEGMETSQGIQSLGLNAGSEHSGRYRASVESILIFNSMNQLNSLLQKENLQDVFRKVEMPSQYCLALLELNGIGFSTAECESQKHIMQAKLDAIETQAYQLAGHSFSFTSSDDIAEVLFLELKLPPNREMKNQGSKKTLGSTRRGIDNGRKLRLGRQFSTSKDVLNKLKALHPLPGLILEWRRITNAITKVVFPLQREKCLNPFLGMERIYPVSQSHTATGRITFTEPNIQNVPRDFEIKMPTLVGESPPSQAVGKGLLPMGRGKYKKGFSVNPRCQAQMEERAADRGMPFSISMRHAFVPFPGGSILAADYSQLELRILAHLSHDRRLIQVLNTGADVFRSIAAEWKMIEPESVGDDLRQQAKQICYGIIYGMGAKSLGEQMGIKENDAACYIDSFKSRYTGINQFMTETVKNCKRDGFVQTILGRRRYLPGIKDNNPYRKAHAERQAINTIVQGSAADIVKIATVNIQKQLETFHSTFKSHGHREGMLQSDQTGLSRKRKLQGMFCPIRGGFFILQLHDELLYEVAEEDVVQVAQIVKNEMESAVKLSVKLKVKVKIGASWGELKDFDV
# Test: Polθ Polymerase Domain Kinact/KI Assay (PicoGreen)
# Format: biochemical
# Conditions: 0.8 nM Polθ, 100 nM DNA substrate, kobs vs [I] fit for 2-step covalent inhibitor
# Procedure, shortened: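 Covalent Kinact/KI by PicoGreen DNA synthesis readout: E. coli-expressed Polθ polymerase domain (0.8 nM), 100 nM annealed DNA substrate, […], Tris pH 7.5 buffer with DTT, 1% DMSO; EDTA-stopped over 0–60 min time course. kobs from progress curves, then kobs vs [I] fit to two-step covalent model.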
row,Kinact/Kl,SMILES
1,1.82e+06 M⁻¹ s⁻¹,"C=C(CN(C)C)C(=O)N1Cc2ccc(CN3C[C@H]4CC(=O)N(c5cc(C(F)(F)F)cc(C)n5)[C@@H]4C(=O)N(C)c4cccc(Cl)c43)cc2C1 [Example 163, (3aR,11aS)-6-chloro-5-((2-(2-((dimethylamino)methyl)acryloyl)isoindolin-5-yl)methyl)-10-methyl-1-(6-methyl-4-(trifluoromethyl)pyridin-2-yl)-1,3a,4,5,10,11a-hexahydro-2H-benzo[b]pyrrolo[2,3-f][1,4]diazocine-2,11(3H)-dione]"
2,2.38e+06 M⁻¹ s⁻¹,"C=C(CN(C)C)C(=O)NC12CC(CN3C[C@H]4CC(=O)N(c5cc(C(F)(F)F)cc(C)n5)[C@@H]4C(=O)N(C)c4cccc(Cl)c43)(C1)C2 [Example 164, N-(3-(((3aR,11aS)-6-chloro-10-methyl-1-(6-methyl-4-(trifluoromethyl)pyridin-2-yl)-2,11-dioxo-1,2,3,3a,4, 10,11,11a-octahydro-5H-benzo[b]pyrrolo[2,3-f][1,4]diazocin-5-yl)methyl)bicyclo[1.1.1]pentan-1-yl)-2-((dimethylamino)methyl) acrylamide]"
3,1.18e+06 M⁻¹ s⁻¹,"C=C(C)C(=O)N1CC(OCCCN2C[C@H]3CC(=O)N(c4cc(C(F)(F)F)cc(C)n4)[C@@H]3C(=O)N(C)c3cccc(Cl)c32)C1 [Example 165, (3aR,11aS)-6-chloro-5-(3-((1-methacryloylazetidin-3-yl)oxy)propyl)-10-methyl-1-(6-methyl-4-(trifluoromethyl)pyridin-2-yl)-1,3a,4,5,10,11a-hexahydro-2H-benzo[b]pyrrolo[2,3-f][1,4]diazocine-2,11(3H)-dione]"
4,3.41e+06 M⁻¹ s⁻¹,"C=C(CN(CC)CC)C(=O)N1CC(OCCCN2C[C@H]3CC(=O)N(c4cc(C(F)(F)F)cc(C)n4)[C@@H]3C(=O)N(C)c3cccc(Cl)c32)C1 [Example 166, (3aR, 11aS)-6-chloro-5-(3-((1-(2-((diethylamino)methyl)acryloyl)azetidin-3-yl)oxy)propyl)-10-methyl-1-(6-methyl-4-(trifluoromethyl)pyridin-2-yl)-1,3a,4,5,10,11a-hexahydro-2H-benzo[b]pyrrolo[2,3-f][1,4]diazocine-2,11(3H)-dione]"
5,4.66e+06 M⁻¹ s⁻¹,"C=C(CN1CCN(C)CC1)C(=O)N1CC(CCCCN2C[C@H]3CC(=O)N(c4cc(C(F)(F)F)cc(C)n4)[C@@H]3C(=O)N(C)c3cccc(Cl)c32)C1 [Example 167, (3aR,11aS)-6-chloro-10-methyl-1-(6-methyl-4-(trifluoromethyl)pyridin-2-yl)-5-(4-(1-(2-((4-methylpiperazin-1-yl)methyl)acryloyl)azetidin-3-yl)butyl)-1,3a,4,5,10,11a-hexahydro-2H-benzo[b]pyrrolo[2,3-f][1,4]diazocine-2,11(3H)-dione]"
6,1.97e+06 M⁻¹ s⁻¹,"C=C(CO)C(=O)N1CCC(CCCN2C[C@H]3CC(=O)N(c4cc(C(F)(F)F)cc(C)n4)[C@@H]3C(=O)N(C)c3cccc(Cl)c32)CC1 [Example 168, (3aR,11aS)-6-chloro-5-(3-(1-(2-(hydroxymethyl)acryloyl)piperidin-4-yl)propyl)-10-methyl-1-(6-methyl-4-(trifluoromethyl)pyridin-2-yl)-1,3a,4,5,10,11a-hexahydro-2H-benzo[b]pyrrolo[2,3-f][1,4]diazocine-2,11(3H)-dione]"
7,2.69e+06 M⁻¹ s⁻¹,"Cc1cc(C(F)(F)F)cc(N2C(=O)C[C@@H]3CN(CCCOC4CN(C(=O)/C=C/CN(C)C)C4)c4c(C)cccc4N(C)C(=O)[C@H]32)n1 [Example 169, (3aR,11aS)-5-(3-((1-((E)-4-(dimethylamino)but-2-enoyl)azetidin-3-yl)oxy)propyl)-6,10-dimethyl-1-(6-methyl-4-(trifluoromethyl)pyridin-2-yl)-1,3a,4,5,10,11a-hexahydro-2H-benzo[b]pyrrolo[2,3-f][1,4]diazocine-2,11(3H)-dione]"
8,2.92e+06 M⁻¹ s⁻¹,"C=CC(=O)N1CCn2nc(CN3C[C@H]4CC(=O)N(c5cc(C(F)(F)F)cc(C)n5)[C@@H]4C(=O)N(C)c4cccc(C)c43)cc2C1 [Example 173, (3aR,11aS)-5-((5-acryloyl-4,5,6,7-tetrahydropyrazolo [1,5-a]pyrazin-2-yl)methyl)-6,10-dimethyl-1-(6-methyl-4-(trifluoro-methyl)pyridin-2-yl)-1,3a,4,5,10, 11a-hexahydro-2H-benzo[b]pyrrolo [2,3-f][1,4]diazo-cine-2,11(3H)-dione]"
9,1.08e+06 M⁻¹ s⁻¹,"C=CC(=O)NC12CC(CN3C[C@H]4CC(=O)N(c5cc(C(F)(F)F)cc(C)n5)[C@@H]4C(=O)N(C)c4cccc(C)c43)(C1)C2 [Example 174, N-(3-(((3aR,11aS)-6,10-dimethyl-1-(6-methyl-4-(tri-fluoromethyl)pyr-idin-2-yl)-2,11-dioxo-1,2,3,3a,4, 10,11,11a-octa-hydro-5H-benzo [b]pyrrolo[2,3-f] [1,4]diazocin-5-yl)methyl)bicyclo [1.1.1]pentan-1-yl)acrylamide]"
10,370000 M⁻¹ s⁻¹,"C=CC(=O)NCC12CC(CN3C[C@H]4CC(=O)N(c5cc(C(F)(F)F)cc(C)n5)[C@@H]4C(=O)N(C)c4cccc(C)c43)(C1)C2 [Example 175, N-((3-(((3aR,11aS)-6,10-dimethyl-1-(6-methyl-4-(tri-fluoromethyl)pyr-idin-2-yl)-2,11-dioxo-1,2,3,3a,4, 10,11,11a-octa-hydro-5H-benzo [b]pyrrolo[2,3-f] [1,4]diazocin-5-yl)methyl)bicyclo [1.1.1]pentan-1-yl)-methyl)acrylamide]"
11,260000 M⁻¹ s⁻¹,"Cc1cc(C(F)(F)F)cc(N2C(=O)C[C@@H]3CN(Cc4ccc(CNC(=O)/C=C/CN(C)C)cc4)c4c(C)cccc4N(C)C(=O)[C@H]32)n1 [Example 177, (E)-N-(4-(((3aR, 11aS)-6,10-dimeth-yl-1-(6-methyl-4-(trifluoromethyl)-pyridin-2-yl)-2,11-dioxo-1,2,3,3a,4, 10,11,11a-octa-hydro-5H-benzo[b]pyrrolo[2,3-f][1,4]diazocin-5-yl)-methyl)benzyl)-4-(dimethylamino)-but-2-enamide]"
12,1.6e+06 M⁻¹ s⁻¹,"Cc1cc(C(F)(F)F)cc(N2C(=O)C[C@@H]3CN(CC45CC(NC(=O)/C=C/CN(C)C)(C4)C5)c4c(C)cccc4N(C)C(=O)[C@H]32)n1 [Example 178, (E)-N-(3-(((3aR, 11aS)-6,10-dimeth-yl-1-(6-methyl-4-(trifluoromethyl)-pyridin-2-yl)-2,11-dioxo-1,2,3,3a,4, 10,11,11a-octa-hydro-5H-benzo [b]pyrrolo[2,3-f] [1,4]diazocin-5-yl)methyl)bicyclo [1.1.1]pentan-1-yl)-4-(dimethyl-amino)but-2-enamide]"

row,SMILES,Kinact/Kl
1,"Cc1cc(C(F)(F)F)cc(N2C(=O)C[C@@H]3CN(Cc4ccc5c(c4)CN(C(=O)/C=C/CN(C)C)C5)c4c(C)cccc4N(C)C(=O)[C@H]32)n1 [Example 176, (3aR,11aS)-5-((2-((E)-4-(dimethyl-amino)but-2-enoyl)isoindolin-5-yl)methyl)-6,10-dimethyl-1-(6-methyl-4-(tri-fluoromethyl)pyr-idin-2-yl)-1,3a,4,5,10,11a-hexa-hydro-2H-benzo [b]pyrrolo[2,3-f] [1,4]diazocine-2,11(3H)-dione]",1.37e+06 M⁻¹ s⁻¹

# From US20250230165A1, “HETEROCYCLIC COMPOUNDS FOR USE IN THE TREATMENT OF CANCER” (ARTIOS PHARMA LIMITED, priority 2021, published 2025)
